Several values for one entry are separate records, joined by “and”; a condition that tells them apart may be missing. Equal values may be shown once. Marks after values point to notes of the source that are not given here.
Key:
CIA rats [1] = test: Collagen-induced arthritis (CIA) rats, arthritis severity index; type: in vivo, rat; details: for % Inhibition Arthritis index (AUC): vs CIA + vehicle
Protocol: Male Sprague Dawley rats (7-8 weeks old, n=40) were purchased from Charles River Laboratories Inc. (Wilmington, Mass., USA) and acclimated upon arrival for two weeks before being assigned randomly to their respective treatment groups: G1=Normal control (−) (n=10/group), G2=collagen-induced arthritis (CIA)+Vehicle (0.5% Carboxy Methylcellulose) (n=10/group), G3=CIA+Methotrexate (+) (75 μg/kg) (n=10/group), and G4=CIA+AMK (+) (200 mg/kg) (n=10/group). Treatment was initiated two weeks before model induction and lasted for an additional three weeks thereafter. Collagen type-II (Lot #845) from bovine nasal septum and Incomplete Freund's adjuvant (IFA) (Lot #SLBR0642v) were purchased from Elastin Products Company (Owensville, Mich., USA) and Sigma (St. Louise, Mo., USA), respectively. All materials were kept at suitable temperatures as recommended by the manufacturer. At the time of preparation, 60 mg of collagen was weighed and added to pre-chilled 15 mL 0.1 M acetic acid in a 60 mL-sized flask with a magnetic stirrer to yield 4 mg/mL concentration (Brand, et al., 2003; Rosloniec et al., 2001).
The mixture was dissolved by gently stirring overnight at 4° C. The next morning, the dissolved collagen was emulsified with equal volume of IFA (15 mL) to achieve a final concentration of 2 mg/mL collagen. Rats sedated with isoflurane were then primed intradermally with 400 μL of the emulsified collagen at the base of their tail at two sites using a 1 mL syringe fitted with a 26 G needle. The dissolved mixture was kept in an ice bucket and stirred between groups at the time of injection to preserve uniform consistency. On the seventh day, rats were inoculated with a booster dose of 2 mg/mL type II collagen emulsified with equal volume of incomplete adjuvant at 100 μL/rat/site.
Clinical findings such as arthritis severity index, paw thickness, ankle diameter (using Digital Absolute, Model #PK-0505CPX, Mitutoyo Corporation, Kawasaki, Japan), and pain sensitivity (using Randall Salitto, IITC Life Science Inc., Woodland Hills, Calif., USA) were monitored during the course of study. Urine was collected from overnight fasted rats using metabolic cages after three weeks of treatment post-model induction. At Necropsy, serum from the cardiac and synovial lavage (100 μL of saline was injected into the articular cavity and aspirated back to the syringe) for biomarkers and ankle joint for histopathology were collected from each animal.
Linear trapezoid rule was used to calculate area under the curve (AUC) for days 9-21. % Inhibition={(Mean value of treatment-mean value of CIA+)/(Mean value of control-mean value of CIA)}*100.
Male Sprague Dawley rats (7-8 weeks old, n=40) were purchased from Charles River Laboratories Inc. (Wilmington, Mass., USA) and acclimated upon arrival for two weeks before being assigned randomly to their respective treatment groups: G1=Normal control (−) (n=10/group), G2=collagen-induced arthritis (CIA)+Vehicle (0.5% Carboxy Methylcellulose) (n=10/group), G3=CIA+Methotrexate (+) (0.5 mg/kg) (n=10/group), and G4=CIA+AP (+) (200 mg/kg) (n=10/group). Treatment was initiated two weeks before model induction and lasted for an additional three weeks thereafter. Collagen type-II (Lot #845) from bovine nasal septum and Incomplete Freund's adjuvant (IFA) (Lot #SLBR0642v) were purchased from Elastin Products Company (Owensville, Mich., USA) and Sigma (St. Louise, Mo., USA), respectively. All materials were kept at suitable temperatures as recommended by the manufacturer. At the time of preparation, 60 mg of collagen was weighed and added to pre-chilled 15 mL 0.1 M acetic acid in a 60 mL-sized flask with a magnetic stirrer to yield 4 mg/mL concentration (Brand, et al., 2003; Rosloniec et al., 2001). The mixture was dissolved by gently stirring overnight at 4° C. The next morning, the dissolved collagen was emulsified with equal volume of IFA (15 mL) to achieve a final concentration of 2 mg/mL collagen.

CIA rats [2] = test: CIA rats, ankle diameter; type: in vivo, rat; parameters: Ankle diameter (Mean): unit not given here; details: for % Inhibition Ankle diameter (AUC): vs CIA + vehicle
[3] = AMK CIA study, MTX 75 μg/kg, AMK 200 mg/kg oral, AUC days 9-21
[4] = AMK study, MTX 75 μg/kg, AMK 200 mg/kg
[5] = AP CIA study, Methotrexate 0.5 mg/kg, AP 200 mg/kg oral
[6] = AP study, MTX 0.5 mg/kg, AP 200 mg/kg

For `CN(Cc1cnc2nc(N)nc(N)c2n1)c1ccc(C(=O)N[C@@H](CCC(=O)O)C(=O)O)cc1` [Methotrexate], the “percent reduction of area under the arthritis severity curve vs vehicle-treated CIA” value (CIA rats [1]; [3]) was 62.55% and 62.6%, the “AUC(d9-d21) (Mean ± SD) Arthritis index” value (CIA rats [1]; [4]) was 4.87 ± 0.21 and the “average arthritis severity score at the end of the study” value (CIA rats [1]; [5]) was 1.1±0.17. For the same molecule, the “percent reduction of area under the arthritis severity curve vs vehicle-treated CIA” value (CIA rats [1]; [5]) was 78.8%, the “AUC(d9-d21) (Mean ± SD) Arthritis index” value (CIA rats [1]; [6]) was 5.00 ± 0.48 and the “Arthritis Index, Mean” value (CIA rats [1]; Boost, MTX 0.5 mg/kg, AP 200 mg/kg) was 0.00. The “Arthritis Index, Mean” value (CIA rats [1]; CIA, MTX 75 μg/kg, AMK 200 mg/kg oral, Boost) was 0.00, the “Arthritis Index, Mean” value (CIA rats [1]; CIA, MTX 75 μg/kg, AMK 200 mg/kg oral, Day 9) was 0.00 and the “Arthritis Index, Mean” value (CIA rats [1]; CIA, MTX 75 μg/kg, AMK 200 mg/kg oral, Day 10) was 0.00. For the same molecule, the “Arthritis Index, Mean” value (CIA rats [1]; CIA, MTX 75 μg/kg, AMK 200 mg/kg oral, Day 11) was 0.00, the “Arthritis Index, Mean” value (CIA rats [1]; CIA, MTX 75 μg/kg, AMK 200 mg/kg oral, Day 12) was 0.23* and the “Arthritis Index, Mean” value (CIA rats [1]; CIA, MTX 75 μg/kg, AMK 200 mg/kg oral, Day 13) was 0.46^¥. The “Arthritis Index, Mean” value (CIA rats [1]; CIA, MTX 75 μg/kg, AMK 200 mg/kg oral, Day 14) was 0.70^¥, the “Arthritis Index, Mean” value (CIA rats [1]; CIA, MTX 75 μg/kg, AMK 200 mg/kg oral, Day 15) was 1.10^€ and the “Arthritis Index, Mean” value (CIA rats [1]; CIA, MTX 75 μg/kg, AMK 200 mg/kg oral, Day 16) was 1.50^€. For the same molecule, the “Arthritis Index, Mean” value (CIA rats [1]; CIA, MTX 75 μg/kg, AMK 200 mg/kg oral, Priming) was 0.00, the “Arthritis Index, Mean” value (CIA rats [1]; CIA, MTX 75 μg/kg, AMK 200 mg/kg oral, day 17) was 1.76^€ and the “Arthritis Index, Mean” value (CIA rats [1]; CIA, MTX 75 μg/kg, AMK 200 mg/kg oral, day 19) was 2.03^€. For the same molecule, the “Arthritis Index, Mean” value (CIA rats [1]; CIA, MTX 75 μg/kg, AMK 200 mg/kg oral, day 21 (end of study)) was 1.78±0.79, the “Arthritis Index, Mean” value (CIA rats [1]; CIA, MTX 75 μg/kg, AMK 200 mg/kg oral, day 21 (end of study), listed as MTX) was 1.78^€ and the “Arthritis Index, Mean” value (CIA rats [1]; Day 10, MTX 0.5 mg/kg, AP 200 mg/kg) was 0. The “Arthritis Index, Mean” value (CIA rats [1]; Day 11, MTX 0.5 mg/kg, AP 200 mg/kg) was 0, the “Arthritis Index, Mean” value (CIA rats [1]; Day 12, MTX 0.5 mg/kg, AP 200 mg/kg) was 0.05** and the “Arthritis Index, Mean” value (CIA rats [1]; Day 13, MTX 0.5 mg/kg, AP 200 mg/kg) was 0**. For the same molecule, the “Arthritis Index, Mean” value (CIA rats [1]; Day 14, MTX 0.5 mg/kg, AP 200 mg/kg) was 0**, the “Arthritis Index, Mean” value (CIA rats [1]; Day 15, MTX 0.5 mg/kg, AP 200 mg/kg) was 0.35** and the “Arthritis Index, Mean” value (CIA rats [1]; Day 16, MTX 0.5 mg/kg, AP 200 mg/kg) was 0.875**. The “Arthritis Index, Mean” value (CIA rats [1]; Day 17, MTX 0.5 mg/kg, AP 200 mg/kg) was 1**, the “Arthritis Index, Mean” value (CIA rats [1]; Day 19, MTX 0.5 mg/kg, AP 200 mg/kg) was 1.075** and the “Arthritis Index, Mean” value (CIA rats [1]; Day 20, MTX 0.5 mg/kg, AP 200 mg/kg) was 1.1**. The “Arthritis Index, Mean” value (CIA rats [1]; Priming, MTX 0.5 mg/kg, AP 200 mg/kg) was 0.00, the “% Inhibition Arthritis index (AUC)” value (CIA rats [1]; MTX 75 μg/kg, AMK 200 mg/kg) was 62.55% and the “% Inhibition Arthritis index (AUC)” value (CIA rats [1]; MTX 0.5 mg/kg, AP 200 mg/kg) was 78.78%. The “percent reduction in ankle diameter (AUC) vs vehicle-treated CIA” value (CIA rats [2]; [3]) was 65.94% and 65.9%, the “AUC(d9-d21) (Mean ± SD) Ankle diameter” value (CIA rats [2]; [4]) was 39.11 ± 0.21 and the “percent reduction in ankle diameter (AUC) vs vehicle-treated CIA” value (CIA rats [2]; [5]) was 93.6%. The “AUC(d9-d21) (Mean ± SD) Ankle diameter” value (CIA rats [2]; [6]) was 30.94 ± 0.11, the “Ankle diameter (Mean)” value (CIA rats [2]; Boost, MTX 75 μg/kg, AMK 200 mg/kg) was 6.08 and the “Ankle diameter (Mean)” value (CIA rats [2]; Day 9, MTX 75 μg/kg, AMK 200 mg/kg) was 6.12. The “Ankle diameter (Mean)” value (CIA rats [2]; Day 10, MTX 75 μg/kg, AMK 200 mg/kg) was 6.17, the “Ankle diameter (Mean)” value (CIA rats [2]; Day 11, MTX 75 μg/kg, AMK 200 mg/kg) was 6.33 and the “Ankle diameter (Mean)” value (CIA rats [2]; Day 12, MTX 75 μg/kg, AMK 200 mg/kg) was 6.50*. For the same molecule, the “Ankle diameter (Mean)” value (CIA rats [2]; Day 13, MTX 75 μg/kg, AMK 200 mg/kg) was 6.67*, the “Ankle diameter (Mean)” value (CIA rats [2]; Day 14, MTX 75 μg/kg, AMK 200 mg/kg) was 6.85* and the “Ankle diameter (Mean)” value (CIA rats [2]; Day 15, MTX 75 μg/kg, AMK 200 mg/kg) was 7.06*. For the same molecule, the “Ankle diameter (Mean)” value (CIA rats [2]; Day 16, MTX 75 μg/kg, AMK 200 mg/kg) was 7.28*, the “Ankle diameter (Mean)” value (CIA rats [2]; Priming, AP study, MTX 0.5 mg/kg, AP 200 mg/kg) was 0.10 and the “Ankle diameter (Mean)” value (CIA rats [2]; Priming, MTX 75 μg/kg, AMK 200 mg/kg) was 6.03. For the same molecule, the “Ankle diameter (Mean)” value (CIA rats [2]; day 17, MTX 75 μg/kg, AMK 200 mg/kg) was 7.32*, the “Ankle diameter (Mean)” value (CIA rats [2]; day 19, MTX 75 μg/kg, AMK 200 mg/kg) was 6.03† and the “Ankle diameter (Mean)” value (CIA rats [2]; day 21, MTX 75 μg/kg, AMK 200 mg/kg) was 6.08†. The “% Inhibition Ankle diameter (AUC)” value (CIA rats [2]; MTX 75 μg/kg, AMK 200 mg/kg) was 65.94% and the “% Inhibition Ankle diameter (AUC)” value (CIA rats [2]; MTX 0.5 mg/kg, AP 200 mg/kg) was 93.59%.

Source: patent US20220000964A1, “Compositions and Methods for Regulating Homeostasis of Chondrocytes, Extracellular Matrix, Articular Cartilage, and Phenotype of Arthritis” (Unigen, Inc., priority 2020, published 2022)
